Tests used:
Type in all cases: functional, organism-based
Influenza B virus [1] = experiment: The compound was tested in vitro for the inhibitory concentration against influenza B/Mem/89 sialidase from whole virus by fetuin assay
Influenza A virus [2] = experiment: The compound was tested in vitro for the inhibitory concentration against influenza N2 sialidase from whole virus by fetuin assay
Influenza B virus [3] = experiment: The compound was tested in vitro for the inhibitory concentration against influenza B/Mem/89 sialidase from whole virus by MUN assay
Influenza A virus [4] = experiment: The compound was tested in vitro for the inhibitory concentration against influenza N2 sialidase from whole virus by MUN assay

Structure (SMILES)	IC50 (Influenza B virus [1])	IC50 (Influenza A virus [2])	IC50 (Influenza B virus [3])	IC50 (Influenza A virus [4])
CC(=O)Nc1ccc(C(=O)O)cc1OC(C)=O	5 mM	10 mM	> 10 mM	> 10 mM
CC(=O)Nc1c(N)cc(C(=O)O)cc1O	> 10 mM	> 10 mM	10 mM	> 10 mM
CC(=O)Nc1ccc(C(=O)O)cc1N		> 10 mM	> 20 mM	> 10 mM
CC(=O)NC1C(O)CC(O)(C(=O)O)OC1[C@H](O)[C@H](O)CO (stereo partly drawn)			> 10 mM	
CC(=O)Nc1ccc(C(=O)O)cc1NC(=O)CCCN	> 10 mM	> 10 mM	> 10 mM	> 10 mM
CC(=O)Nc1ccc(C(=O)O)cc1[N+](=O)[O-]	5 mM	5 mM	5 mM	5 mM
CC(=O)Nc1cc([N+](=O)[O-])c(C(=O)O)c([N+](=O)[O-])c1O	4 mM	3 mM	1 mM	1 mM
CC(=O)Nc1c(OC(C)=O)cc(C(=O)O)cc1[N+](=O)[O-]	4 mM	3 mM	2 mM	5 mM
CC(=O)Nc1c(O)cc(C(=O)O)cc1[N+](=O)[O-]	1 mM	1 mM	0.75 mM	0.75 mM
CC(=O)Nc1ccc(C(=O)O)cc1NC(=O)CO	10 mM	> 10 mM	3 mM	4 mM
CC(=O)Nc1ccc(C(=O)O)cc1NC(=O)C(O)CO (stereo not drawn)	> 10 mM	4 mM	8 mM	5 mM
CC(=O)Nc1ccc(C(=O)O)cc1O [3-HYDROXY-4-ACETYLAMINOBENZOIC ACID]	10 mM	10 mM	> 10 mM	> 10 mM
CC(=O)N[C@H]1[C@H]([C@H](O)[C@H](O)CO)OC(C(=O)O)=C[C@@H]1O [NEU5AC2EN]	0.015 mM	0.015 mM	0.015 mM	0.015 mM
